# Source: patent US4439426A, “Semisynthetic macrolidic antibiotics, intermediate compounds for their preparation and related pharmaceutical compositions containing them” (priority 1981, dated 1984)
# Key:
# [1] = Stability in acidic environment at 25° C. (half-life of initial microbiological activity); assay type: physicochemical; details: aqueous solution
# Protocol: Stability in acidic environnment at 25° C. of the novel
# Note: t 1/2 represents the time for reducing to one half the initial powe
# of the antibiotic determined by microbiological method through diffusion
# on a plate using the test stock Microccocus luteus (Sarcina lutea) ATCC
# [2] = tested on: Acholeplasma laidlawii ATCC 23206 LRP 204; assay: Bacteriostatic power in solid medium (MIC); assay type: cell-based; details: Acholeplasma laidlawii, ATCC23206, read-out: Minimum inhibiting concentration
# Excerpt: (§1) the bacteriostatic power, expressed as the minimum inhibiting concentration (MIC) against both aerobic and anaerobic, Gram positive and Gram negative, bacterial stocks: the related results are reported in the tables 2 and 3.
# Bacillus subtilis LRP 25 = assay: Bacteriostatic power in solid medium (MIC); assay type: cell-based; details: Bacillus subtilis, LRP25; solid medium; read-out: Minimum inhibiting concentration
# Excerpt: as §1
# [3] = tested on: Bacteroides fragilis ATCC 23745 LRP 205; assay: Bacteriostatic power in solid medium (MIC); assay type: cell-based; details: Bacteroides fragilis, ATCC23745; solid medium; anaerobic; read-out: Minimum inhibiting concentration
# Excerpt: as §1
# [4] = tested on: Corynebacterium diphteriae LRP 24; assay: Bacteriostatic power in solid medium (MIC); assay type: cell-based; details: Corynebacterium, LRP24; solid medium; read-out: Minimum inhibiting concentration
# Excerpt: as §1
# Escherichia coli LRP 50 = assay: Bacteriostatic power in solid medium (MIC); assay type: cell-based; details: Escherichia coli, LRP50; solid medium; read-out: Minimum inhibiting concentration
# Excerpt: as §1
# [5] = tested on: Fusobacteriumnecrophroum ATCC 27852 LRP 210; assay: Bacteriostatic power in solid medium (MIC); assay type: cell-based; details: solid medium; anaerobic; read-out: Minimum inhibiting concentration
# Excerpt: as §1
# [6] = tested on: Haemophilus influenzae ATCC 19418 LRP 213; assay: Bacteriostatic power in solid medium (MIC); assay type: cell-based; details: Haemophilus influenzae, ATCC19418; solid medium; read-out: Minimum inhibiting concentration
# Excerpt: as §1
# [7] = tested on: Klelsiella pneumoniae LRP 54; assay: Bacteriostatic power in solid medium (MIC); assay type: cell-based; details: solid medium; read-out: Minimum inhibiting concentration
# Excerpt: as §1
# [8] = tested on: Micrococcus luteus ATCC 15957 LRP 193; assay: Bacteriostatic power in solid medium (MIC); assay type: cell-based; details: Micrococcus luteus, ATCC15957; solid medium; Erythromycin resistant; read-out: Minimum inhibiting concentration
# Excerpt: as §1
# [9] = tested on: Micrococcus luteus ATCC 9341 LRP 6; assay: Bacteriostatic power in solid medium (MIC); assay type: cell-based; details: Micrococcus luteus, ATCC9341; solid medium; read-out: Minimum inhibiting concentration
# Excerpt: as §1
# [10] = tested on: Mycoplasma hominis I ATCC 14027 LRP 211; assay: Bacteriostatic power in solid medium (MIC); assay type: cell-based; details: Metamycoplasma hominis, ATCC14027; solid medium; read-out: Minimum inhibiting concentration
# Excerpt: as §1
# [11] = tested on: Neisseria gonorrhoeae ATCC 19424 LRP 214; assay: Bacteriostatic power in solid medium (MIC); assay type: cell-based; details: Neisseria gonorrhoeae, ATCC19424; solid medium; read-out: Minimum inhibiting concentration
# Excerpt: as §1
# [12] = tested on: Proteus vulgaris ATCC 6380 LRP 13; assay: Bacteriostatic power in solid medium (MIC); assay type: cell-based; details: Proteus vulgaris, ATCC6380; solid medium; read-out: Minimum inhibiting concentration
# Excerpt: as §1
# [13] = tested on: Pseudomonas aeruginosa LRP 9; assay: Bacteriostatic power in solid medium (MIC); assay type: cell-based; details: Pseudomonas aeruginosa, LRP9; solid medium; read-out: Minimum inhibiting concentration
# Excerpt: as §1
# Shigella sonnei LRP 5 = assay: Bacteriostatic power in solid medium (MIC); assay type: cell-based; details: LRP5, read-out: Minimum inhibiting concentration
# Excerpt: as §1
# [14] = tested on: Staphylococcus aureus ATCC 14154 LRP 78; assay: Bacteriostatic power in solid medium (MIC); assay type: cell-based; details: Staphylococcus aureus, ATCC14154; solid medium; Erythromycin resistant; read-out: Minimum inhibiting concentration
# Excerpt: as §1
# [15] = tested on: Staphylococcus aureus ATCC 6538P LRP 14; assay: Bacteriostatic power in solid medium (MIC); assay type: cell-based; details: Staphylococcus aureus, ATCC6538P; solid medium; Penycilline resistant; read-out: Minimum inhibiting concentration
# Excerpt: as §1
# [16] = tested on: Staphylococcus aureus ATCC 6538P LRP 39; assay: Bacteriostatic power in solid medium (MIC); assay type: cell-based; details: Staphylococcus aureus, ATCC6538P; solid medium; read-out: Minimum inhibiting concentration
# Excerpt: as §1
# [17] = tested on: Streptococcus faecalis LRP 7; assay: Bacteriostatic power in solid medium (MIC); assay type: cell-based; details: Enterococcus faecalis, LRP7; solid medium; read-out: Minimum inhibiting concentration
# Excerpt: as §1
# [18] = tested on: Streptococcus faecalis subsp. zymogenes ATCC 12958 LRP 61; assay: Bacteriostatic power in solid medium (MIC); assay type: cell-based; details: Enterococcus faecalis, ATCC12958; solid medium; read-out: Minimum inhibiting concentration
# Excerpt: as §1
# [19] = tested on: Streptococcus pneumoniae ATCC 6303 LRP 35; assay: Bacteriostatic power in solid medium (MIC); assay type: cell-based; details: Streptococcus pneumoniae, ATCC6303; solid medium; read-out: Minimum inhibiting concentration
# Excerpt: as §1
# [20] = tested on: Streptococcus pneumoniae ATCC 6303 LRP 52; assay: Bacteriostatic power in solid medium (MIC); assay type: cell-based; details: Streptococcus pneumoniae, ATCC6303; solid medium; read-out: Minimum inhibiting concentration
# Excerpt: as §1
# [21] = tested on: Streptococcus pneumoniae ATCC 6303 LRP 53; assay: Bacteriostatic power in solid medium (MIC); assay type: cell-based; details: Streptococcus pneumoniae, ATCC6303; solid medium; read-out: Minimum inhibiting concentration
# Excerpt: as §1
# [22] = tested on: Streptococcus pyogenes ATCC 8668 LRP 197; assay: Bacteriostatic power in solid medium (MIC); assay type: cell-based; details: Streptococcus pyogenes, ATCC8668; solid medium; read-out: Minimum inhibiting concentration
# Excerpt: as §1
# [23] = tested on: Streptococcus pyogenes ATCC 8668 LRP 34; assay: Bacteriostatic power in solid medium (MIC); assay type: cell-based; details: Streptococcus pyogenes, ATCC8668; solid medium; read-out: Minimum inhibiting concentration
# Excerpt: as §1
# [24] = tested on: Clostridium perfrigens ATCC 3624 LRP 206; assay: microbe, parasite or virus in culture; assay type: cell-based; details: ATCC3624, solid medium, anaerobic, read-out: Minimum inhibiting concentration
# Excerpt: as §1
# Salmonella typhy LRP 8 = assay: microbe, parasite or virus in culture; assay type: cell-based; details: LRP8, solid medium, read-out: Minimum inhibiting concentration
# Excerpt: as §1
# [25] = tested on: Corynebacterium diphteriae LRP 24; assay: Bacteriostatic power in liquid medium (MIC); assay type: cell-based; details: Corynebacterium, LRP24; liquid medium; read-out: Minimum inhibiting concentration
# Excerpt: as §1
# [26] = tested on: Staphylococcus aureus ATCC 6538 P LRP 39; assay: Bacteriostatic power in liquid medium (MIC); assay type: cell-based; details: Staphylococcus aureus, ATCC6538; liquid medium; read-out: Minimum inhibiting concentration
# Excerpt: as §1
# [27] = tested on: Streptococcus faecalis subs. zymogenes ATCC 12958 LRP 61; assay: Bacteriostatic power in liquid medium (MIC); assay type: cell-based; details: Enterococcus faecalis, ATCC12958; liquid medium; read-out: Minimum inhibiting concentration
# Excerpt: as §1
# [28] = tested on: Streptococcus pneumoniae ATCC 6303 LRP 35; assay: Bacteriostatic power in liquid medium (MIC); assay type: cell-based; details: Streptococcus pneumoniae, ATCC6303; liquid medium; read-out: Minimum inhibiting concentration
# Excerpt: as §1
# [29] = tested on: Streptococcus pyogenes ATCC 8668 LRP 34; assay: Bacteriostatic power in liquid medium (MIC); assay type: cell-based; details: Streptococcus pyogenes, ATCC8668; liquid medium; read-out: Minimum inhibiting concentration
# Excerpt: as §1
# [30] = tested on: Corynebacterium diphteriae LRP 24; assay: Minimum bactericidal concentration (MBC); assay type: cell-based
# Excerpt: (§2) the bacterial power, expressed as the minimum bactericidal power (MBC) against some Gram positive aerobic stocks (table 5).
# [31] = tested on: Staphylococcus aureus ATCC 6538 P LRP 39; assay: Minimum bactericidal concentration (MBC); assay type: cell-based
# Excerpt: as §2
# [32] = tested on: Streptococcus faecalis subs. zymogenes LRP 61; assay: Minimum bactericidal concentration (MBC); assay type: cell-based
# Excerpt: as §2
# [33] = tested on: Streptococcus pneumoniae ATCC 6303 LRP 35; assay: Minimum bactericidal concentration (MBC); assay type: cell-based
# Excerpt: as §2
# [34] = tested on: Streptococcus pyogenes ATCC 8668 LRP 34; assay: Minimum bactericidal concentration (MBC); assay type: cell-based
# Excerpt: as §2
structure (smiles),measurement,setting,value
"CC[C@H]1OC(=O)[C@H](C)[C@@H](O[C@H]2C[C@@](C)(O)[C@@H](O)[C@H](C)O2)[C@H](C)[C@@H](O[C@@H]2O[C@H](C)C[C@H](N(C)C)[C@H]2O)[C@](C)(O)C[C@](C)(F)C(=O)[C@H](C)[C@@H](O)[C@H]1C [P-80202, (8S)-8-fluoroerythromycin D]",half-life,[1]; pH 2,0.4 h
same,half-life,[1]; pH 3,10 h
same,MIC,[2],3.12 µg/mL
same,MIC,Bacillus subtilis LRP 25,0.049 µg/mL
same,MIC,[3],0.39 µg/mL
same,MIC,[4],0.006 µg/mL
same,MIC,Escherichia coli LRP 50,25 µg/mL
same,MIC,[5],6.25 µg/mL
same,MIC,[6],6.25 µg/mL
same,MIC,[7],25 µg/mL
same,MIC,[8],25 µg/mL
same,MIC,[9],0.006 µg/mL
same,MIC,[10],25 µg/mL
same,MIC,[11],0.097 µg/mL
same,MIC,[12],25 µg/mL
same,MIC,[13],25 µg/mL
same,MIC,Shigella sonnei LRP 5,25 µg/mL
same,MIC,[14],25 µg/mL
same,MIC,[15],0.097 µg/mL
same,MIC,[16],0.097 µg/mL
same,MIC,[17],0.097 µg/mL
same,MIC,[18],0.097 µg/mL
same,MIC,[19],0.024 µg/mL
same,MIC,[20],0.024 µg/mL
same,MIC,[21],0.024 µg/mL
same,MIC,[22],0.024 µg/mL
same,MIC,[23],0.024 µg/mL
same,MIC,[24],3.12 µg/mL
same,MIC,Salmonella typhy LRP 8,12.5 µg/mL
same,MIC,[25],0.012 µg/mL
same,MIC,[26],0.195 µg/mL
same,MIC,[27],0.39 µg/mL
same,MIC,[28],0.049 µg/mL
same,MIC,[29],0.049 µg/mL
same,MBC/MIC,[30],16
same,MBC,"[30]; Corynebacterium, LRP24, read-out: Minimum bactericidal concentration (MBC)",0.195 µg/mL
same,MBC/MIC,[31],16
same,MBC,"[31]; Staphylococcus aureus, ATCC6538, read-out: Minimum bactericidal concentration (MBC)",3.12 µg/mL
same,MBC/MIC,[32],8
same,MBC,"[32]; Enterococcus faecalis, read-out: Minimum bactericidal concentration (MBC)",3.12 µg/mL
same,MBC/MIC,[33],4
same,MBC,"[33]; Streptococcus pneumoniae, ATCC6303, read-out: Minimum bactericidal concentration (MBC)",0.195 µg/mL
same,MBC/MIC,[34],8
same,MBC,"[34]; Streptococcus pyogenes, ATCC8668, read-out: Minimum bactericidal concentration (MBC)",0.39 µg/mL
